Tests used:
[1] = target: Phosphatidylinositol 4,5-bisphosphate 3-kinase catalytic subunit alpha isoform (Homo sapiens, UniProt P42336)
[2] = Inhibition of TORC1 in human A2058 cells assessed as decrease in S6 phosphorylation at Ser235/236 after 1 hr by Western blot analysis; format: cell-based; conditions: A2058, 1 h
[3] = Inhibition of TORC2 in human A2058 cells assessed as decrease in PKB/Akt phosphorylation at Ser473 after 1 hr by Western blot analysis; format: cell-based; conditions: A2058, 1 h
[4] = target: Serine/threonine-protein kinase mTOR (Homo sapiens, UniProt P42345)
[5] = target: Phosphatidylinositol 4-kinase beta (Homo sapiens, UniProt Q9UBF8)
Chain of Phosphatidylinositol 4-kinase beta (Q9UBF8 whole entry, the tested form may be a part): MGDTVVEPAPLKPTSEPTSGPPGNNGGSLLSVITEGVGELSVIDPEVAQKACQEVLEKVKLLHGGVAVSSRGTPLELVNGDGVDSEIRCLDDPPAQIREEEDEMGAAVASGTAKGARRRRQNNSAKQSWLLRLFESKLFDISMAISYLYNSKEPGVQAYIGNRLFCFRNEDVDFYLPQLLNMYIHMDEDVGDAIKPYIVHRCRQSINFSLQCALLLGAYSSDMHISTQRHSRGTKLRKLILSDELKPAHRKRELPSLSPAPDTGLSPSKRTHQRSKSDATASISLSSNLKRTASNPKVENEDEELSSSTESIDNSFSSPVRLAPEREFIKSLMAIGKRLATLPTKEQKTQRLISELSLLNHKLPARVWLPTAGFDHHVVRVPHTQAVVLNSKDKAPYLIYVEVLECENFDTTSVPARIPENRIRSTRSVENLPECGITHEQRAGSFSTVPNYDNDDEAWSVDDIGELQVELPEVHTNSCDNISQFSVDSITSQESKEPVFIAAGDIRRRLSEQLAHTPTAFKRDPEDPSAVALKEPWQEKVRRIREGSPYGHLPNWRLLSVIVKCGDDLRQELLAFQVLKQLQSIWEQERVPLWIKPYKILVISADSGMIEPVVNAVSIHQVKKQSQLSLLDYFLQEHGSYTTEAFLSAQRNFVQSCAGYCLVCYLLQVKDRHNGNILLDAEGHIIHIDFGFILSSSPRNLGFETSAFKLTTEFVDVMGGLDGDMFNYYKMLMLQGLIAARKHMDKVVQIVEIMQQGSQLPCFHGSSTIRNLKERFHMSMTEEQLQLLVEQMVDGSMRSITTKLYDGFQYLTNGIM
Description: Inhibition of human PI4Kbeta (1 to 828 residues) expressed in mammalian expression system by KINOMEscan assay

[6] = target: Phosphatidylinositol 3-kinase catalytic subunit type 3 (Homo sapiens, UniProt Q8NEB9); test: Inhibition of human VPS34 (282 to 879 residues) expressed in mammalian expression system by KINOMEscan assay
Chain of Phosphatidylinositol 3-kinase catalytic subunit type 3 (Q8NEB9 whole entry, the tested form may be a part): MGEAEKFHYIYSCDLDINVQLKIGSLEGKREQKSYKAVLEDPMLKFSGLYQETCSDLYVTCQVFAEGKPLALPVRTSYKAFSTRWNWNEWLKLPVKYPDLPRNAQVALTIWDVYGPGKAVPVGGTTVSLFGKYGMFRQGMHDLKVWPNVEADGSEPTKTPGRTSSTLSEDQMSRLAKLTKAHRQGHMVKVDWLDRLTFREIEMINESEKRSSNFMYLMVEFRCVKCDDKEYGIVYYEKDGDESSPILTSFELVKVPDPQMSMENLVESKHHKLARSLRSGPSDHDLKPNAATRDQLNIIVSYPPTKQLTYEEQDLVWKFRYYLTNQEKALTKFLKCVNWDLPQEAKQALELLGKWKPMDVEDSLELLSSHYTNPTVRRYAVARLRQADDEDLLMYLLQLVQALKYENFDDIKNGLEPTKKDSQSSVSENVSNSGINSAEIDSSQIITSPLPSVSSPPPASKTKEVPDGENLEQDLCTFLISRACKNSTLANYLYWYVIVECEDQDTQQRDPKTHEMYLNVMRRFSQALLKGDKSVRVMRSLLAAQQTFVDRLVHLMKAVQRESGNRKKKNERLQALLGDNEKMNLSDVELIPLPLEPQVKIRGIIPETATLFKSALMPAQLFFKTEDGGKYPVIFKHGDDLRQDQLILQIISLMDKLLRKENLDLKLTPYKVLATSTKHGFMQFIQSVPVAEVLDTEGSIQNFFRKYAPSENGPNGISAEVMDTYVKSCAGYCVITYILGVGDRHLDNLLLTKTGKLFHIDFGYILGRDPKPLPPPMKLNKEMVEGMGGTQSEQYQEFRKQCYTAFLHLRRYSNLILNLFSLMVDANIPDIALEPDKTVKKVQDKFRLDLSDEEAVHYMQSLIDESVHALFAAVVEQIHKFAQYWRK

Chain of Phosphatidylinositol 4,5-bisphosphate 3-kinase catalytic subunit alpha isoform (P42336 whole entry, canonical isoform): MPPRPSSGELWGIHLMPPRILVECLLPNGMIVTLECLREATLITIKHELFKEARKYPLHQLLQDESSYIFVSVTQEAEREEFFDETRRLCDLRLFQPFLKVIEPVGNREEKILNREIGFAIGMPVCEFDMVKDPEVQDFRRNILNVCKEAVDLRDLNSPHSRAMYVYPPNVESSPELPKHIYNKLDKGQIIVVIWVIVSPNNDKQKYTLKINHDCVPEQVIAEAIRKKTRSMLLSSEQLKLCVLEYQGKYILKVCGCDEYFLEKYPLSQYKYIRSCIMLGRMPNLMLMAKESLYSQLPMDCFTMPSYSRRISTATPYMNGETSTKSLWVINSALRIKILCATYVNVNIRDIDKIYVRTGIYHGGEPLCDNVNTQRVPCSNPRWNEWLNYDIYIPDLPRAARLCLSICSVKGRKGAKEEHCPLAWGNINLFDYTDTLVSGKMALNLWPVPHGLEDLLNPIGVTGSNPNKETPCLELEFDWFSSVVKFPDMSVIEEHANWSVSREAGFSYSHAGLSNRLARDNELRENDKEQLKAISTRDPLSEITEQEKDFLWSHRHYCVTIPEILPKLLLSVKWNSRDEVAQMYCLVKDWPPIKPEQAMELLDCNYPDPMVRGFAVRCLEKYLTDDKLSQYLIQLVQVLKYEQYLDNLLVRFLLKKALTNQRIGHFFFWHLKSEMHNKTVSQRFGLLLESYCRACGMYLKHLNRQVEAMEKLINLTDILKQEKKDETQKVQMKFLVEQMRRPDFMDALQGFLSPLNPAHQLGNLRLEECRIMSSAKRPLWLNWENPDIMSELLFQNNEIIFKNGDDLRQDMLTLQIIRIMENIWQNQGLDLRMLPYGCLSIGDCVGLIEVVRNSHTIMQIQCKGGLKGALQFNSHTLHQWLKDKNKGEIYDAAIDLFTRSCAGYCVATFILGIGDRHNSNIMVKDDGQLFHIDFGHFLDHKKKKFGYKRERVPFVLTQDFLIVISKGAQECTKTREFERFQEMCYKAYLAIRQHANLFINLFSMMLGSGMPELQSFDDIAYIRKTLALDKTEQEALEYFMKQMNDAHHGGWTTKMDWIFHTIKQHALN

| Ki [1] | IC50 [2] | IC50 [3] | Ki [4] | Kd [5] | Kd [6] | Compound |
| --- | --- | --- | --- | --- | --- | --- |
| 29 nM | 256 nM | 243 nM | 42 nM |  |  | Nc1cc(C(F)F)c(-c2nc(N3CCOCC3)cc(N3CCOCC3)n2)cn1 |
| 8790 nM | 2330 nM | 4820 nM | 73.4 nM |  |  | CC1(C)CN(c2nc(-c3cnc(N)cc3C(F)F)nc(N3CCOC(C)(C)C3)n2)CCO1 |
| 68.6 nM | 218 nM | 397 nM | 54.3 nM |  |  | Nc1cc(CF)c(-c2nc(N3CCOCC3)nc(N3CCOCC3)n2)cn1 |
| 4630 nM | 12600 nM | 17700 nM | 308 nM |  |  | Nc1cc(C(F)F)c(-c2nc(N3C[C@H]4C[C@@H]3CO4)nc(N3C[C@H]4C[C@@H]3CO4)n2)cn1 |
| 41 nM | 926 nM | 729 nM | 911 nM |  |  | Nc1cc(C(F)(F)F)c(-c2nc(N3CCOCC3)cc(N3CCOCC3)n2)cn1 |
|  |  |  |  | 39 nM | 2500 nM | CO[C@H]1CC[C@H](N2C(=O)CNc3ncc(-c4ccc(C(C)(C)O)nc4)nc32)CC1 [ONATASERTIB] |
| 32.2 nM | 209 nM | 354 nM | 13.6 nM |  |  | CC[C@@H]1COCCN1c1nc(-c2cnc(N)cc2C(F)F)nc(N2CCOC[C@H]2CC)n1 |
| 693 nM | 1920 nM | 1850 nM | 483 nM |  |  | COc1cc(N)ncc1-c1nc(N2CCOCC2)nc(N2CCOCC2)n1 |
| > 20000 nM | 1560 nM | 4040 nM | 18.5 nM |  |  | Nc1cc(C(F)F)c(-c2nc(N3C[C@@H]4C[C@H]3CO4)nc(N3C[C@@H]4C[C@H]3CO4)n2)cn1 |
| 5670 nM | 1940 nM | 3320 nM | 435 nM |  |  | Nc1cc(C(F)(F)F)c(-c2nc(N3C4CCC3COC4)cc(N3C4CCC3COC4)n2)cn1 |
| 129 nM | 2110 nM | 1200 nM | 474 nM |  |  | COC(OC)c1cc(N)ncc1-c1nc(N2CCOCC2)nc(N2CCOCC2)n1 |
|  |  |  |  |  | 8200 nM | CC(C)n1nc(-c2ccc3oc(N)nc3c2)c2c(N)ncnc21 [SAPANISERTIB] |
| 20.8 nM | 138 nM | 147 nM | 9.6 nM |  |  | C[C@@H]1COCCN1c1nc(-c2cnc(N)cc2C(F)F)nc(N2CCOCC2)n1 |
| > 20000 nM | 1300 nM | 1210 nM | 60.2 nM |  |  | Nc1cc(C(F)F)c(-c2nc(N3C4CCCC3COC4)nc(N3C4CCCC3COC4)n2)cn1 |
| 18 nM | 184 nM | 207 nM | 35 nM |  |  | Nc1cc(C(F)F)c(-c2cc(N3CCOCC3)nc(N3CCOCC3)n2)cn1 |
| 141 nM | 160 nM | 252 nM | 3.5 nM |  |  | C[C@@H]1COC[C@H](C)N1c1nc(-c2cnc(N)cc2C(F)F)nc(N2[C@H](C)COC[C@@H]2C)n1 |
| 633 nM | 310 nM | 364 nM | 12.6 nM |  |  | C[C@@H]1COCCN1c1nc(-c2cnc(N)cc2C(F)F)nc(N2CCOC[C@H]2C)n1 |
| 23.7 nM | 112 nM | 144 nM | 3.4 nM |  |  | Nc1cc(C(F)F)c(-c2nc(N3CCOCC3)nc(N3CC4CCC(C3)O4)n2)cn1 |
| > 20000 nM | 1190 nM | 3570 nM | 79.9 nM |  |  | C[C@@H]1COC[C@@H](C)N1c1nc(-c2cnc(N)cc2C(F)F)nc(N2[C@H](C)COC[C@H]2C)n1 |
| > 20000 nM | 5770 nM | 17900 nM | 551 nM |  |  | Nc1cc(C(F)F)c(-c2nc(N3C4COCC3C4)nc(N3C4COCC3C4)n2)cn1 |
|  | 118 nM | 102 nM |  |  |  | Nc1cc(C(F)F)c(-c2nc(N3CCOCC3)nc(N3CCOCC3)n2)cn1 |
|  | 553 nM | 416 nM |  |  |  | Nc1cc(C(F)(F)F)c(-c2cc(N3CCOCC3)nc(N3CCOCC3)n2)cn1 [BUPARLISIB] |
| 632 nM | 526 nM | 942 nM | 32.8 nM |  |  | Nc1cc(C(F)F)c(-c2nc(N3CCOCC34CCC4)nc(N3CCOCC34CCC4)n2)cn1 |
| 2190 nM | 318 nM | 520 nM | 30 nM |  |  | Nc1cc(C(F)(F)F)c(-c2cc(N3C4CCC3COC4)nc(N3C4CCC3COC4)n2)cn1 |
| 64 nM | 294 nM | 379 nM | 21.1 nM |  |  | C[C@H]1COC[C@H](C)N1c1nc(-c2cnc(N)cc2C(F)F)nc(N2[C@@H](C)COC[C@@H]2C)n1 |
| 81.3 nM | 528 nM | 341 nM | 74.5 nM |  |  | Nc1cc(CO)c(-c2nc(N3CCOCC3)nc(N3CCOCC3)n2)cn1 |
| 15400 nM | 10400 nM | 20900 nM | 650 nM |  |  | C[C@@H]1CN(c2nc(-c3cnc(N)cc3C(F)F)nc(N3C[C@@H](C)O[C@@H](C)C3)n2)C[C@H](C)O1 |
| 2230 nM | 395 nM | 650 nM | 60 nM |  |  | Nc1cc(C(F)F)c(-c2nc(N3C4CCC3COC4)cc(N3C4CCC3COC4)n2)cn1 |
| 1300 nM | 301 nM | 630 nM | 13.9 nM |  |  | Nc1cc(C(F)F)c(-c2nc(N3CC4CCC(C3)O4)nc(N3CC4CCC(C3)O4)n2)cn1 |

| Compound | Ki [1] | IC50 [2] | IC50 [3] | Ki [4] | Kd [5] | Kd [6] |
| --- | --- | --- | --- | --- | --- | --- |
| Nc1cc(C(F)F)c(-c2nc(N3CCOCC3)nc(N3C4CCC3COC4)n2)cn1 | 25.8 nM | 113 nM | 156 nM | 11.2 nM |  |  |
| Nc1cc(C(F)F)c(-c2cc(N3C4CCC3COC4)nc(N3C4CCC3COC4)n2)cn1 | 2090 nM | 164 nM | 287 nM | 12 nM |  |  |
| Nc1cc(C(F)F)c(-c2nc(N3C4COCC3COC4)nc(N3C4COCC3COC4)n2)cn1 | 2380 nM | 275 nM | 357 nM | 31 nM |  |  |

From ChEMBL document CHEMBL4270669 (J Med Chem, 2018)
